Data taken from ChEMBL document CHEMBL5724914, “Linking interpersonal differences in gut microbiota composition and drug biotransformation activity” (2024).

conditions: human gut metagenome, 24 h, 2 µM
Further: call rule not given here.

Bacterial Biotransformation	SMILES
Compound NOT metabolized	CC1Cc2ccccc2N1NC(=O)c1ccc(Cl)c(S(N)(=O)=O)c1 (stereo not given) [INDAPAMIDE]
Compound metabolized	COc1ccc2c(c1)c(CC(=O)O)c(C)n2C(=O)c1ccc(Cl)cc1 [INDOMETHACIN]

assay: (§1) The drug is tested on Z-020 corresponding to rabbit gut metagenome with ENA study accession number: PRJEB37062 and ENA sample accession number: ERS12561819 for biotransformation under anaerobic condition. The drug concentrations were measured over 9 timepoints collected between 0 and 24 hours of incubation by liquid-chromatography-coupled mass spectrometry (LC–MS); conditions: 2 µM

Bacterial Biotransformation	SMILES
Compound NOT metabolized	CC1Cc2ccccc2N1NC(=O)c1ccc(Cl)c(S(N)(=O)=O)c1 (stereo not given) [INDAPAMIDE]
Compound metabolized	COc1ccc2c(c1)c(CC(=O)O)c(C)n2C(=O)c1ccc(Cl)cc1 [INDOMETHACIN]

assay: as §1, with “Z-026” for “Z-020”, “to” for “to rabbit gut”, “ERS12561825” for “ERS12561819”; conditions: 2 µM

Bacterial Biotransformation	SMILES
Compound NOT metabolized	CC1Cc2ccccc2N1NC(=O)c1ccc(Cl)c(S(N)(=O)=O)c1 (stereo not given) [INDAPAMIDE]
Compound NOT metabolized	COc1ccc2c(c1)c(CC(=O)O)c(C)n2C(=O)c1ccc(Cl)cc1 [INDOMETHACIN]

conditions: human gut metagenome, 24 h, 2 µM; remark: another data set of the same source

Bacterial Biotransformation	SMILES
Compound NOT metabolized	CC1Cc2ccccc2N1NC(=O)c1ccc(Cl)c(S(N)(=O)=O)c1 (stereo not given) [INDAPAMIDE]
Compound metabolized	COc1ccc2c(c1)c(CC(=O)O)c(C)n2C(=O)c1ccc(Cl)cc1 [INDOMETHACIN]

conditions: human gut metagenome, 24 h, 2 µM; remark: another data set of the same source

Bacterial Biotransformation	SMILES
Compound NOT metabolized	CC1Cc2ccccc2N1NC(=O)c1ccc(Cl)c(S(N)(=O)=O)c1 (stereo not given) [INDAPAMIDE]
Compound metabolized	COc1ccc2c(c1)c(CC(=O)O)c(C)n2C(=O)c1ccc(Cl)cc1 [INDOMETHACIN]

assay: as §1, with “WLS-077” for “Z-020”, “human” for “rabbit”, “ERS12561750” for “ERS12561819”; conditions: 2 µM

Bacterial Biotransformation	SMILES
Compound NOT metabolized	CC1Cc2ccccc2N1NC(=O)c1ccc(Cl)c(S(N)(=O)=O)c1 (stereo not given) [INDAPAMIDE]
Compound metabolized	COc1ccc2c(c1)c(CC(=O)O)c(C)n2C(=O)c1ccc(Cl)cc1 [INDOMETHACIN]

conditions: human gut metagenome, 24 h, 2 µM; remark: another data set of the same source

Bacterial Biotransformation	SMILES
Compound NOT metabolized	CC1Cc2ccccc2N1NC(=O)c1ccc(Cl)c(S(N)(=O)=O)c1 (stereo not given) [INDAPAMIDE]
Compound metabolized	COc1ccc2c(c1)c(CC(=O)O)c(C)n2C(=O)c1ccc(Cl)cc1 [INDOMETHACIN]

assay: as §1, with “Z-008” for “Z-020”, “to” for “to rabbit gut”, “ERS12561808” for “ERS12561819”; conditions: 2 µM

Bacterial Biotransformation	SMILES
Compound NOT metabolized	CC1Cc2ccccc2N1NC(=O)c1ccc(Cl)c(S(N)(=O)=O)c1 (stereo not given) [INDAPAMIDE]
Compound NOT metabolized	COc1ccc2c(c1)c(CC(=O)O)c(C)n2C(=O)c1ccc(Cl)cc1 [INDOMETHACIN]

assay: as §1, with “WLS-220” for “Z-020”, “human” for “rabbit”, “ERS12561769” for “ERS12561819”; conditions: 2 µM

Bacterial Biotransformation	SMILES
Compound NOT metabolized	CC1Cc2ccccc2N1NC(=O)c1ccc(Cl)c(S(N)(=O)=O)c1 (stereo not given) [INDAPAMIDE]
Compound metabolized	COc1ccc2c(c1)c(CC(=O)O)c(C)n2C(=O)c1ccc(Cl)cc1 [INDOMETHACIN]

conditions: human gut metagenome, 24 h, 2 µM; remark: another data set of the same source

Bacterial Biotransformation	SMILES
Compound NOT metabolized	CC1Cc2ccccc2N1NC(=O)c1ccc(Cl)c(S(N)(=O)=O)c1 (stereo not given) [INDAPAMIDE]
Compound metabolized	COc1ccc2c(c1)c(CC(=O)O)c(C)n2C(=O)c1ccc(Cl)cc1 [INDOMETHACIN]

conditions: human gut metagenome, 24 h, 2 µM; remark: another data set of the same source

Bacterial Biotransformation	SMILES
Compound NOT metabolized	CC1Cc2ccccc2N1NC(=O)c1ccc(Cl)c(S(N)(=O)=O)c1 (stereo not given) [INDAPAMIDE]
Compound metabolized	COc1ccc2c(c1)c(CC(=O)O)c(C)n2C(=O)c1ccc(Cl)cc1 [INDOMETHACIN]

assay: as §1, with “Z-003” for “Z-020”, “pig” for “rabbit”, “ERS12561803” for “ERS12561819”; conditions: 2 µM

Bacterial Biotransformation	SMILES
Compound NOT metabolized	CC1Cc2ccccc2N1NC(=O)c1ccc(Cl)c(S(N)(=O)=O)c1 (stereo not given) [INDAPAMIDE]
Compound NOT metabolized	COc1ccc2c(c1)c(CC(=O)O)c(C)n2C(=O)c1ccc(Cl)cc1 [INDOMETHACIN]

conditions: human gut metagenome, 24 h, 2 µM; remark: another data set of the same source

Bacterial Biotransformation	SMILES
Compound NOT metabolized	CC1Cc2ccccc2N1NC(=O)c1ccc(Cl)c(S(N)(=O)=O)c1 (stereo not given) [INDAPAMIDE]
Compound metabolized	COc1ccc2c(c1)c(CC(=O)O)c(C)n2C(=O)c1ccc(Cl)cc1 [INDOMETHACIN]

conditions: human gut metagenome, 24 h, 2 µM; remark: another data set of the same source

Bacterial Biotransformation	SMILES
Compound NOT metabolized	CC1Cc2ccccc2N1NC(=O)c1ccc(Cl)c(S(N)(=O)=O)c1 (stereo not given) [INDAPAMIDE]
Compound metabolized	COc1ccc2c(c1)c(CC(=O)O)c(C)n2C(=O)c1ccc(Cl)cc1 [INDOMETHACIN]

conditions: human gut metagenome, 24 h, 2 µM; remark: another data set of the same source

Bacterial Biotransformation	SMILES
Compound NOT metabolized	CC1Cc2ccccc2N1NC(=O)c1ccc(Cl)c(S(N)(=O)=O)c1 (stereo not given) [INDAPAMIDE]
Compound metabolized	COc1ccc2c(c1)c(CC(=O)O)c(C)n2C(=O)c1ccc(Cl)cc1 [INDOMETHACIN]

assay: as §1, with “WLS-007” for “Z-020”, “human” for “rabbit”, “ERS12561742” for “ERS12561819”; conditions: 2 µM

Bacterial Biotransformation	SMILES
Compound NOT metabolized	CC1Cc2ccccc2N1NC(=O)c1ccc(Cl)c(S(N)(=O)=O)c1 (stereo not given) [INDAPAMIDE]
Compound metabolized	COc1ccc2c(c1)c(CC(=O)O)c(C)n2C(=O)c1ccc(Cl)cc1 [INDOMETHACIN]

conditions: human gut metagenome, 24 h, 2 µM; remark: another data set of the same source

Bacterial Biotransformation	SMILES
Compound NOT metabolized	CC1Cc2ccccc2N1NC(=O)c1ccc(Cl)c(S(N)(=O)=O)c1 (stereo not given) [INDAPAMIDE]
Compound metabolized	COc1ccc2c(c1)c(CC(=O)O)c(C)n2C(=O)c1ccc(Cl)cc1 [INDOMETHACIN]

assay: as §1, with “WLS-310” for “Z-020”, “human” for “rabbit”, “ERS12561785” for “ERS12561819”; conditions: 2 µM

Bacterial Biotransformation	SMILES
Compound NOT metabolized	CC1Cc2ccccc2N1NC(=O)c1ccc(Cl)c(S(N)(=O)=O)c1 (stereo not given) [INDAPAMIDE]
Compound metabolized	COc1ccc2c(c1)c(CC(=O)O)c(C)n2C(=O)c1ccc(Cl)cc1 [INDOMETHACIN]

conditions: human gut metagenome, 24 h, 2 µM; remark: another data set of the same source

Bacterial Biotransformation	SMILES
Compound NOT metabolized	CC1Cc2ccccc2N1NC(=O)c1ccc(Cl)c(S(N)(=O)=O)c1 (stereo not given) [INDAPAMIDE]
Compound metabolized	COc1ccc2c(c1)c(CC(=O)O)c(C)n2C(=O)c1ccc(Cl)cc1 [INDOMETHACIN]

assay: as §1, with “Z-030” for “Z-020”, “mouse” for “rabbit”, “ERS12561829” for “ERS12561819”; conditions: 2 µM

Bacterial Biotransformation	SMILES
Compound NOT metabolized	CC1Cc2ccccc2N1NC(=O)c1ccc(Cl)c(S(N)(=O)=O)c1 (stereo not given) [INDAPAMIDE]
Compound NOT metabolized	COc1ccc2c(c1)c(CC(=O)O)c(C)n2C(=O)c1ccc(Cl)cc1 [INDOMETHACIN]
